{"source": "patent US9550763B2", "about": "“Heterocyclic ring and carbocyclic derivative” (Shionogi & Co., Ltd., priority 2012, dated 2017)"}
{"target": "human P2X3 receptor (Homo sapiens (Human), UniProt P56373)", "sequence (P56373 whole entry)": "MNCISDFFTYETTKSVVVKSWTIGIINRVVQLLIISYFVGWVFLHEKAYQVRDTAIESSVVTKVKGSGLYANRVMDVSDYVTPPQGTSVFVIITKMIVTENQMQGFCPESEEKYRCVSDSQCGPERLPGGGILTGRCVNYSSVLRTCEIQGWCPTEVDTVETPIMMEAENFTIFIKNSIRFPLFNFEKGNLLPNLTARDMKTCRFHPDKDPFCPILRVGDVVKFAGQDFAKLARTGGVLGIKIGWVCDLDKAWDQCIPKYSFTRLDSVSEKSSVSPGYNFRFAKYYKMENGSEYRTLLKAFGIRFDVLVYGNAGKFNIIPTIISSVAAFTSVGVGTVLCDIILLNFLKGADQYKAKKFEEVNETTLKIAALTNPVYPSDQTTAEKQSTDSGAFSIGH", "test": "Evaluation of human P2X3 receptor inhibitory activity (Test Example 1-1, FDSS 3000, 96-well, 50 nM ATP)", "type": "cell-based", "details": "human P2X3 receptor in C6BU-1 cells; Test Example 1-1 (compounds I-001 to I-300)", "experimental": "Stably expressing cell line (C6BU-1 cell transfected with human P2X3 receptor gene (GenBank accession number Y07683) was used. The cells were seeded in a 96-well microtiter plate at a concentration of 8000 cells/well and cultured in the medium (7.0% fetal bovine serum, 7.0% horse serum, 1% antibiotic and antifungal in DMEM) for one day at 37° C. under 5% carbon dioxide atmosphere. The medium was replaced with 4 μM Fluo-3-AM solution (20 mM HEPES, 137 mM NaCl, 5.27 mM KCl, 0.9 mM MgCl2, 1.26 mM CaCl2, 5.6 mM D-glucose, 2.5 mM probenecid, 1% BSA, and 0.08% Pluronic F-127, pH 7.5) and incubated at 37° C. under 5% dioxide carbon atmosphere for one hour. The plate was washed with washing buffer (20 mM HEPES, 137 mM NaCl, 5.27 mM KCl, 0.9 mM MgCl2, 1.26 mM CaCl2, 5.6 mM D-glucose, 2.5 mM probenecid, pH7.5), and each well was added with 40 μL of this buffer. The plate was placed in High-Throughput Screening System. FDSS 3000 (Hamamatsu Photonics K.K.). Measurement of fluorescence intensity by FDSS 3000 was started, and 40 μL of DMSO solutions containing different concentrations of the test compound as prepared by dilution with dilution buffer (20 mM HEPES, 137 mM NaCl, 5.27 mM KCl, 0.9 mM MgCl2, 1.26 mM CaCl2, 5.68 mM D-glucose, 2.5 mM probenecid, 0.1% Pluronic F-127, pH7.5) were dispensed to each well through the built-in automatic dispenser. Five minutes after, 50 nM ATP solution (50 μL) prepared by dilution with the dilution buffer was dispensed through the built-in automatic dispenser, and the measurement of fluorescence intensity was continued for 4 min. For each well, the specific maximum fluorescence intensity was calculated as the ratio of the maximum fluorescence intensity after addition of the ATP solution to the fluorescence intensity at the starting of the measurement. The 50% inhibitory concentration (IC50) was calculated under the assumption that the specific maximum fluorescence intensity without test compound is 0% inhibition and that the specific maximum fluorescence intensity when the dilution buffer was added in place of ATP solution is 100% inhibition, to evaluate the inhibitory activity of the test compound. FDSS software (Hamamatsu Photonics K.K.) was used for calculation of the specific maximum fluorescence intensity. IC50 was calculated using Microsoft Excel (Microsoft Corporation) and XLfit (idbs Ltd.)\nThe data of the compounds I-001 to I-300 are the results by the method mentioned in Test Example 1-1, and the data of the compounds I-301 to I-483 are the results by the method mentioned in Test Example 1-2.", "units": {"IC50": "µM"}}
{"molecule": "CCn1c(=O)cc(Nc2ccc(Oc3cncc(C(N)=O)c3)cc2)n(Cc2ccc(Cl)cc2)c1=O", "note": "[Compound I-001]", "IC50": 0.011}
{"molecule": "CCC(=O)Nc1c[nH]/c(=N\\c2ccc(Oc3cccc(C#N)n3)cc2)n(Cc2ccc(Cl)cc2)c1=O", "note": "[Compound I-006]", "IC50": 0.005}
{"molecule": "COC(=O)Nc1c[nH]/c(=N\\c2ccc(Oc3cccc(C(N)=O)n3)cc2)n(Cc2ccc(Cl)cc2)c1=O", "note": "[Compound I-007]", "IC50": 0.023}
{"molecule": "CCn1c(=O)cc(Nc2ccc(Oc3cccc(C(=O)OC)c3)cc2)n(Cc2ccc(Cl)cc2)c1=O", "note": "[Compound I-008, 1-(4-chlorobenzyl)-3-ethyl-6-[4-(3-methoxycarbonylphenoxy)phenylamino]pyrimidin-2,4(1H,3H)-dione]", "IC50": 0.038}
{"molecule": "CCn1c(=O)cc(Nc2ccc(Oc3cccc(C#N)n3)cc2)n(Cc2ccc(Cl)cc2)c1=O", "note": "[Compound I-009]", "IC50": 0.005}
{"molecule": "CCOC(=O)c1cnc(Oc2ccc(Nc3cc(=O)n(CC)c(=O)n3Cc3ccc(Cl)cc3)cc2)s1", "note": "[Compound I-010]", "IC50": 0.004}
{"molecule": "CCn1c(=O)cc(Nc2ccc(Oc3cccc(C#N)n3)c(F)c2)n(Cc2ccc(Cl)cc2)c1=O", "note": "[Compound I-011]", "IC50": 0.002}
{"molecule": "CCn1c(=O)cc(Nc2ccc(Oc3cccc(C#N)n3)c(C)c2)n(Cc2ccc(Cl)cc2)c1=O", "note": "[Compound I-012]", "IC50": 0.002}
{"molecule": "CCn1c(=O)cc(Nc2ccc(Oc3ncc(C(=O)O)s3)cc2)n(Cc2ccc(Cl)cc2)c1=O", "note": "[Compound I-013]", "IC50": 0.002}
{"molecule": "CCOC(=O)c1cn(Cc2ccc(Cl)cc2)c(Nc2ccc3oc(CC)c(C)c3c2)nc1=O", "note": "[Compound I-015]", "IC50": 0.16}
{"molecule": "CCc1oc2ccc(Nc3nc(=O)c(C(=O)O)cn3Cc3ccc(Cl)cc3)cc2c1C", "note": "[Compound I-017]", "IC50": 0.401}
{"molecule": "CCOC(=O)c1c[nH]/c(=N\\c2ccc(Oc3cccc(F)n3)cc2)n(Cc2ccc(Cl)cc2)c1=O", "note": "[Compound I-018]", "IC50": 0.013}
{"molecule": "CCc1oc2ccc(Nc3ncc(C(=O)NC4CCOCC4)c(=O)n3Cc3ccc(Cl)cc3)cc2c1C", "note": "[Compound I-019, 1-(4-chlorobenzyl)-2-(2-ethyl-3-methylbenzofuran-5-ylamino)-5-(tetrahydro-2H-pyran-4-ylcarbamoyl)pyrimidin-6(1H)-one]", "IC50": 0.135}
{"molecule": "CCc1oc2ccc(Nc3ncc(C(N)=O)c(=O)n3Cc3ccc(Cl)cc3)cc2c1C", "note": "[Compound I-020]", "IC50": 0.05}
{"molecule": "CCc1oc2ccc(Nc3nc(=O)c(C(=O)NC4CCOCC4)cn3Cc3ccc(Cl)cc3)cc2c1C", "note": "[Compound I-021]", "IC50": 0.02}
{"molecule": "CCc1oc2ccc(Nc3nc(=O)c(C(=O)NC(C)C)cn3Cc3ccc(Cl)cc3)cc2c1C", "note": "[Compound I-022]", "IC50": 0.094}
{"molecule": "CCn1c(=O)cc(Nc2ccc(Oc3cccc(C(=O)O)c3)cc2)n(Cc2ccc(Cl)cc2)c1=O", "note": "[Compound I-023, 1-(4-chlorobenzyl)-3-ethyl-6-[4-(3-hydroxycarbonylphenoxy)phenylamino]pyrimidin-2,4(1H,3H)-dione]", "IC50": 0.003}
{"molecule": "CCn1c(=O)cc(Nc2ccc(Oc3cccc(C(N)=O)c3)cc2)n(Cc2ccc(Cl)cc2)c1=O", "note": "[Compound I-024]", "IC50": 0.014}
{"molecule": "CCn1c(=O)cc(Nc2ccc(Oc3cccc(C(N)=O)n3)cc2)n(Cc2ccc(Cl)cc2)c1=O", "note": "[Compound I-025]", "IC50": 0.006}
{"molecule": "CCn1c(=O)cc(Nc2ccc(Oc3cccc(C(N)=O)n3)c(F)c2)n(Cc2ccc(Cl)cc2)c1=O", "note": "[Compound I-026]", "IC50": 0.003}
{"molecule": "CCn1c(=O)cc(Nc2ccc(Oc3cccc(C(N)=O)n3)c(C)c2)n(Cc2ccc(Cl)cc2)c1=O", "note": "[Compound I-027]", "IC50": 0.004}
{"molecule": "CCn1c(=O)cc(Nc2ccc(Oc3cccc(C(=O)O)n3)c(C)c2)n(Cc2ccc(Cl)cc2)c1=O", "note": "[Compound I-028]", "IC50": 0.001}
{"molecule": "O=C(O)c1c[nH]/c(=N\\c2ccc(Oc3cccc(F)n3)cc2)n(Cc2ccc(Cl)cc2)c1=O", "note": "[Compound I-029]", "IC50": 0.236}
{"molecule": "CCc1oc2ccc(/N=c3\\[nH]cc(NC(=O)C4CCOCC4)c(=O)n3Cc3ccc(Cl)cc3)cc2c1C", "note": "[Compound I-030, 1-(4-chlorobenzyl)-2-(2-ethyl-3-methylbenzofuran-5-ylamino)-5-(tetrahydro-2H-pyran-4-ylcarbonylamino)pyrimidin-6(1H)-one]", "IC50": 0.005}
{"molecule": "CCc1oc2ccc(Nc3nc(=O)c(C(=O)NC(CC)CC)cn3Cc3ccc(Cl)cc3)cc2c1C", "note": "[Compound I-031]", "IC50": 0.054}
{"molecule": "CCc1oc2ccc(Nc3ncc(C(=O)NCCO)c(=O)n3Cc3ccc(Cl)cc3)cc2c1C", "note": "[Compound I-032]", "IC50": 0.034}
{"molecule": "CCn1c(=O)cc(Nc2ccc(Oc3cccc(C(=O)O)n3)c(F)c2)n(Cc2ccc(Cl)cc2)c1=O", "note": "[Compound I-033]", "IC50": 0.001}
{"molecule": "NC(=O)c1c[nH]/c(=N\\c2ccc(Oc3cccc(F)n3)cc2)n(Cc2ccc(Cl)cc2)c1=O", "note": "[Compound I-034]", "IC50": 0.014}
{"molecule": "CCOC(=O)c1sc(Oc2ccc(Nc3cc(=O)n(CC)c(=O)n3Cc3ccc(Cl)cc3)cc2)nc1C", "note": "[Compound I-036]", "IC50": 0.022}
{"molecule": "O=c1c(CO)c[nH]/c(=N\\c2ccc(Oc3cccc(F)n3)cc2)n1Cc1ccc(Cl)cc1", "note": "[Compound I-037]", "IC50": 0.034}
{"molecule": "NC(=O)c1cccc(Oc2ccc(Nc3ncc(NC(=O)C4CCOCC4)c(=O)n3Cc3ccc(Cl)cc3)cc2)n1", "note": "[Compound I-038]", "IC50": 0.002}
{"molecule": "CCn1c(=O)cc(Nc2ccc(Oc3ncc(C(N)=O)s3)cc2)n(Cc2ccc(Cl)cc2)c1=O", "note": "[Compound I-039]", "IC50": "< 0.004"}
{"molecule": "CCn1c(=O)cc(Nc2ccc(Oc3cccc(C(=O)O)n3)cc2)n(Cc2ccc(Cl)cc2)c1=O", "note": "[Compound I-040]", "IC50": 0.003}
{"molecule": "CCn1c(=O)cc(Nc2ccc(Oc3nc(C)c(C(=O)O)s3)cc2)n(Cc2ccc(Cl)cc2)c1=O", "note": "[Compound I-041]", "IC50": 0.003}
{"molecule": "O=C(NC1CCOCC1)c1c[nH]/c(=N\\c2ccc(Oc3cccc(F)n3)cc2)n(Cc2ccc(Cl)cc2)c1=O", "note": "[Compound I-042]", "IC50": 0.014}
{"molecule": "CCOC(=O)c1cnc(Nc2ccc(Oc3cccc(C(N)=O)n3)cc2)n(Cc2ccc(Cl)cc2)c1=O", "note": "[Compound I-043]", "IC50": 0.007}
{"molecule": "CCOC(=O)c1cccc(Oc2ccc(Nc3cc(=O)n(CC)c(=O)n3Cc3ccc(Cl)cc3)nc2)c1", "note": "[Compound I-044]", "IC50": 0.103}
{"molecule": "CCc1oc2ccc(/N=c3\\[nH]cc(C=O)c(=O)n3Cc3ccc(Cl)cc3)cc2c1C", "note": "[Compound I-045]", "IC50": 0.226}
{"molecule": "CCc1oc2ccc(/N=c3\\[nH]cc(CO)c(=O)n3Cc3ccc(Cl)cc3)cc2c1C", "note": "[Compound I-046]", "IC50": 0.278}
{"molecule": "CCc1oc2ccc(/N=c3\\[nH]cc(NS(=O)(=O)C4CCOCC4)c(=O)n3Cc3ccc(Cl)cc3)cc2c1C", "note": "[Compound I-047]", "IC50": 0.018}
{"molecule": "CCc1oc2ccc(/N=c3\\[nH]cc(C=NN4CCOCC4)c(=O)n3Cc3ccc(Cl)cc3)cc2c1C", "note": "[Compound I-048]", "IC50": 0.022}
{"molecule": "CCc1oc2ccc(/N=c3\\[nH]cc(CNC4CCOCC4)c(=O)n3Cc3ccc(Cl)cc3)cc2c1C", "note": "[Compound I-049]", "IC50": 0.225}
{"molecule": "O=C(O)c1cccc(Oc2ccc(Nc3ncc(C(=O)O)c(=O)n3Cc3ccc(Cl)cc3)cc2)n1", "note": "[Compound I-050]", "IC50": 0.067}
{"molecule": "CCOC(=O)c1cnc(Nc2ccc(Oc3cccc(C(=O)OC)n3)cc2)n(Cc2ccc(Cl)cc2)c1=O", "note": "[Compound I-051]", "IC50": 0.027}
{"molecule": "CCn1c(=O)cc(Nc2ccc(Oc3ccc(C(=O)OC)cc3)cn2)n(Cc2ccc(Cl)cc2)c1=O", "note": "[Compound I-052]", "IC50": 0.021}
{"molecule": "CCn1c(=O)cc(Nc2ccc(Oc3cccc(C(=O)O)c3)cn2)n(Cc2ccc(Cl)cc2)c1=O", "note": "[Compound I-053]", "IC50": 0.02}
{"molecule": "CCn1c(=O)cc(Nc2ccc(Oc3ccc(C(=O)O)cc3)cn2)n(Cc2ccc(Cl)cc2)c1=O", "note": "[Compound I-054]", "IC50": 0.043}
{"molecule": "CCOC(=O)c1cnc(Nc2ccc(Oc3cccc(C(=O)O)n3)cc2)n(Cc2ccc(Cl)cc2)c1=O", "note": "[Compound I-055]", "IC50": 0.002}
{"molecule": "CCOC(=O)c1cnc(Oc2ccc(Nc3ncc(C(=O)OCC)c(=O)n3Cc3ccc(Cl)cc3)cc2)s1", "note": "[Compound I-056]", "IC50": 0.013}
{"molecule": "CCc1oc2ccc(/N=c3\\[nH]cc(CN4CCOCC4)c(=O)n3Cc3ccc(Cl)cc3)cc2c1C", "note": "[Compound I-057]", "IC50": 0.269}
{"molecule": "CCc1oc2ccc(/N=c3\\[nH]cc(C=NOC)c(=O)n3Cc3ccc(Cl)cc3)cc2c1C", "note": "[Compound I-058]", "IC50": 0.223}
{"molecule": "CCOC(=O)c1cnc(Nc2ccc(Oc3ncc(C(=O)O)s3)cc2)n(Cc2ccc(Cl)cc2)c1=O", "note": "[Compound I-059]", "IC50": 0.006}
{"molecule": "CCOC(=O)c1cccc(Oc2ccc(Nc3cc(=O)n(CC)c(=O)n3Cc3ccc(Cl)cc3)cn2)c1", "note": "[Compound I-060]", "IC50": 0.16}
{"molecule": "CCn1c(=O)cc(Nc2ccc(Oc3ccc(C(=O)OC)cc3)nc2)n(Cc2ccc(Cl)cc2)c1=O", "note": "[Compound I-061]", "IC50": 0.065}
